Source: US12208090B2, “Compounds for use in treating depression and migraine” (Khondrion IP B.V., priority 2017, dated 2025)

Key:
[1] = system: patients carrying the mutation m.3243A>G in the mitochondrial DNA; test: Khenergy phase 2 trial: Beck Depression Inventory-II (BDI); format: in vivo, human
Source text: (§1) The Khenergy trial (clinicaltrial.gov identifier NCT02909400) was a double blind, randomized, placebo-controlled, single-centre, two-way cross-over trial. Twenty patients, with a confirmed mitochondrial DNA tRNALeu(UUR) m.3243A>G mutation and with clinical signs of mitochondrial disease, were randomized over 2 groups (active or placebo first). After a screening period and a training session, each group had 2 dosing periods of 28 days, with a washout period of at least 28 days in between. On these occasions (i.e. during the dosing periods), patients received 100 mg KH176 twice daily (treatment A) or a matching placebo (treatment B) twice daily for 28 days. Clinical assessments were performed once in a training session prior to baseline, at baseline and in week 4 post dosing during each treatment phase (A and B). Testing conditions and circumstances, with respect to timing of the assessments, hospitalization and meals, were standardized for each assessment period. Furthermore, assessments of biomarkers for mitochondrial functioning, pharmacokinetics and specific safety assessments were performed weekly. Trial results have been published (Janssen, Koene, De Laat, et al., 2018)
The effect of KH176 on depression symptoms in patients carrying the mutation m.3243A>G in the mitochondrial DNA was evaluated with the Beck Depression Inventory-II (BDI) score and Hospital Anxiety and Depression Scale (HADS) during the Khenergy phase 2 clinical trial (clinicaltrial.gov identifier NCT02909400). […] This observation was supported by a positive trend in the Hospital Anxiety and Depression Scale (effect size, −1.9 (95% Cl, −3.6 to −0.2); P=0.03).

[2] = system: patients who suffer from chronic migraine; test: Khenergy phase 2 trial: patient-reported migraine and headache; format: in vivo, human
Source text: as §1
Two patients from the Khenergy Phase 2 clinical trial have spontaneously reported a decreased frequency of migraine event during the treatment period with KH176 (reported before unblinding of the study). A third patient retrospectively reported that they had more migraines during the placebo treatment period over the KH176 treatment period.

[3] = 100 mg KH176 twice daily for 28 days vs matching placebo, cross-over

Cc1c(C)c2c(c(C)c1O)CC[C@@](C)(C(=O)N[C@@H]1CCCNC1)O2 [KH176]
Beck Depression Affective Subscale, effect size, comparison KH176-Placebo [1, 3]: −1.1 | Beck Depression Inventory total score, effect size, comparison KH176-Placebo [1, 3]: −2.9 | effect on depression symptoms (in words) ([1]; KHENERGY trial, mitochondrial disease patients): significantly reduce depression symptoms | effect on migraine events (in words) ([2]; KHENERGY trial, patients who previously chronically suffered from migraine, KH176 treatment period): reduction of the intensity and number of migraine events | headache during the 4 weeks of KH176 ([2]; Patient A, before: severe headaches every day, migraine 2 times a week): NO headache | patients with a positive effect on migraine ([2]; patients of the trial who suffer from chronic migraine): 3 out of 3
